Results from a melting point compilation (Tetko et al.; mined from patent text by program, amines drawn as free bases though some values may be those of a salt).

melting point [°C]	SMILES
115 to 116	FC(F)C(F)(F)Oc1cccc(Nc2nccc(-c3cccs3)n2)c1
109 to 113	O=C(Nc1ccc(CCCCC2(C(=O)NCC(F)(F)F)c3ccccc3-c3ccccc32)nc1)c1ccccc1
122	CC(C)(C)OC(=O)N1CCC(C(=O)c2nc3ccccc3n2Cc2ccccc2)CC1
170 to 174	COc1cc(C(=O)N2Cc3ccc(C(=O)NCc4ccccc4)n3Cc3ccccc32)ccc1-c1ccccc1C
128 to 129	Cc1nn(-c2ccc(C(F)(F)F)cn2)cc1CCCOc1ccccc1CC(=O)O
62 to 63	CC(C)c1nc(CCN(C)C(=O)N[C@H](C(=O)N[C@@H](Cc2ccccc2)C[C@H](O)[C@H](Cc2ccccc2)NC(=O)OCc2cncs2)C(C)C)cs1
170 to 172	Cc1cc2c(cc1C)OCC(NNc1ncnc3c1ncn3C1OC(CO)C(O)C1O)C2 (stereo unspecified)
127 to 129	COc1ccc(C(=O)c2ccccc2F)c(O)c1Br
152 to 156	COc1cc2c(cc1OC)CC(=O)N(CC1CCCNC1)CC2 (stereo unspecified)
112 to 114	CCOC(=O)c1cnn(-c2ccc(OCC(C)(C)COC(=O)c3ccccc3)c(C#N)c2)c1
113 to 130	CC(C)(CO)NC(=O)NCCNCC(O)COc1ccc(O)cc1 (stereo unspecified)
122 to 124	COc1cc2nc(NCCNCC(O)COc3ccccc3)nc(N)c2cc1OC (stereo unspecified)
278	Cn1cnc2c1c1n[nH]c(=S)n1c(=O)n2Cc1ccccc1
86 to 88	COc1ccc2c(c1)C1(CCN(Cc3ccccc3)CC1)OC2c1ccc(F)cc1 (stereo unspecified)
185 to 188	N#CC1=Nc2ccc(Cl)cc2Oc2ccccc21
139 to 140	Cn1c(-c2ccc(Cl)cc2)cc2ncccc2c1=O
185	O=C1Nc2ccc(Cl)cc2C1(Cl)c1ccccc1OC(F)(F)F (stereo unspecified)
88 to 89	CCCn1c(=O)cc2n(c1=O)CC(CSc1ccccc1)S2 (stereo unspecified)
193 to 196	Fc1ccccc1-c1cnc2nncn2n1
184 to 185	CCOC(=O)c1cc(C)cc(-c2ccc(NC(=O)OCc3ccccc3)cc2)n1
218 to 220	OCCn1ccc2ncnc(Nc3ccc(Oc4cccc5sncc45)c(Cl)c3)c21
201 to 202	COC(=O)c1ccc(-c2cc(-c3ccccc3)on2)cc1

melting point [°C]	SMILES
249 to 251	CCOC(=O)c1cc2n(C)c3ccc(OC)cc3c(=O)n2n1
69.2 to 70	CC(C)(COCc1cccc(Oc2ccccc2)c1)c1ccc(O)cc1
258 to 259	CNC(=O)Cn1c(-c2ccc(Br)cc2)nc2cccnc21
58 to 60	O=Cc1ccc2c(ccc3ccccc32)c1
256 to 258	Cc1cc(-c2nnc3c4ccccc4c(OCc4ncnn4C)nn23)no1
283	COc1ccccc1-c1nc2cc(NC(=O)c3c(C(=O)O)cnn3C)ccn2n1
88 to 93	CCCCCCC(c1nccn1C)n1cnc2cc(-c3ccccc3-c3nn[nH]n3)ccc21 (stereo unspecified)
70 to 75	CSc1ncc2nc(C)nc(Nc3ccc(F)c(Cl)c3)c2n1
216 to 220	C=C(c1cncn1Cc1ccccc1)C(c1ccc(C)cc1)c1ccc(C)cc1
246 to 247	COc1cc(Nc2nccc(-c3ccc(-c4nnn[nH]4)cc3)n2)cc(OC)c1OC
136 to 138	Cc1ccc2nc(-c3ccc(Cl)cc3)cc(Cl)c2c1
118 to 119	COc1cc(C(=O)C#CC(=O)N(C)C)cc(OC)c1OC
166 to 167	CCc1nn2c(Cl)cc(Cl)nc2c1S(=O)(=O)c1ccccc1
202 to 203	CCCCOc1c(CNC(=O)OC(C)(C)C)n(CC2CC2)c(=O)c2ccc(C(N)=O)cc12
108 to 111	CCOC(=O)c1ccc(NC(=O)c2cc(Cl)ccc2OC)cc1OCC
209 to 210	CCOc1cc(Cc2cnc(N)nc2N)cc2c1OC(C)(C)C=C2C(C)(C)O
159 to 162	CCCc1nc(C)c2nnc3cc(OC)ccc3n12
108 to 110	COC(=O)CCn1cc(Cc2cccnc2)c2cc(CCC(=O)O)ccc21
122 to 123	CN1Cc2c(c3ccccc3c3ccccc23)C1
119 to 120	Cc1oc(-c2ccccc2)nc1COc1ccc(Cc2nc(CCC(=O)O)c(-c3ccccc3)s2)cc1
183 to 184	CCN1c2ncc(COc3cccnc3)cc2C(=O)N(C)c2ccc(Cl)nc21
184 to 185	Cc1oc(-c2ccccc2)nc1CCC(=O)c1ccc(CCCC2OC(=O)NC2=O)cc1 (stereo unspecified)

Continued, compound first:

SMILES	melting point [°C]
CC(C)(C)NC(=O)N1CCN(Cc2ccccc2)C[C@@H]1C(=O)N(CCCn1ccnc1)Cc1ccccc1	57.8
COc1ccc(OC)c2c1C[C@](O)(C(C)=O)CC21SCCS1	175 to 178
O=c1[nH]c2cc(C(F)(F)F)c(Cl)c(Cl)c2[nH]c1=O	> 250
CC(C)(C)OC(=O)N1CCN2C(=O)N(c3ccc(C#N)c4ccccc34)C(=O)C2C1 (stereo unspecified)	222 to 224
CCc1cc2c(s1)-n1c(nnc1CNC(=O)c1cc3ccccc3n1CC(=O)O)CN=C2c1ccccc1Cl	222 to 223
CN1C(=O)N(c2ccc(Cl)cc2)S(=O)(=O)c2ccc(O)cc21	> 250
CC(=CN1C(=O)c2ccccc2C1=O)c1ccco1	136 to 137
CC1OC(COc2ccc(Cl)cc2)OC1=O (stereo unspecified)	53 to 55
CC(=O)c1c(C)nc(C)c(C(=O)OCCC#N)c1-c1cccc([N+](=O)[O-])c1	85
O=C1c2ccccc2C(O)(c2ccc(F)cc2)C2=NC3CCCCC3N12 (stereo unspecified)	203 to 205
CCCc1n[nH]c(C(N)=O)c1[N+](=O)[O-]	197 to 199
N=c1nc(N)c2nc[nH]c2c(N)n1	> 200
CC1(N)CCN(c2c(F)c(F)c3c(=O)c(C(=O)O)cn(C4CC4)c3c2F)C1 (stereo unspecified)	280 to 282
c1ccc(N(c2ccccc2)c2ccsc2)cc1	79 to 82
c1cncc(C2=NNC(c3cccnc3)S2)c1 (stereo unspecified)	77 to 78
CCCCCCCCCCCCC#CC(O)(CCCCC(=O)O)CCCCC(=O)O	65 to 66
CC(C)CCCC(C)C1CCC2C3CC=C4CC(OS(C)(=O)=O)CCC4(C)C3CCC12C (stereo unspecified)	119 to 120
CCOC(=O)c1c[nH]c2nc(N3CCN(C(C)=O)CC3)c(F)cc2c1=O	290 to 295
Cn1nc2nnsc2c1C#N	111 to 114

SMILES	melting point [°C]
CCCNC(=O)CCC(C)C1CCC2C3C(OC(C)=O)CC4CC(OO)(OO)CCC4(C)C3CC(OC(C)=O)C12C (stereo unspecified)	120 to 129
CC1CCc2cc(F)cc3c(=O)c(C(=O)NN)cn1c23 (stereo unspecified)	236 to 238
CCCCCCCS(=O)(=O)c1ccc(N)cc1	91 to 92
CCCCCCC1([N+](=O)[O-])C=CC(C(=O)O)=CC1 (stereo unspecified)	106 to 108
CCC(Oc1cccc(C(F)(F)F)n1)C(=O)O (stereo unspecified)	91
O=C(O)CN1C(=O)CN(Cc2ccccc2)C1=O	125 to 127
Cc1c(S(C)=O)c(C#N)nn1-c1c(Cl)cc(C(F)(F)F)cc1Cl (stereo unspecified)	109 to 115
N#CC1c2ccccc2CSc2ccccc21 (stereo unspecified)	128 to 130
CNc1cc(N2CCN(C(=O)N3CCN(S(=O)(=O)c4ccc(C(F)(F)F)cc4)CC3)CC2)ncn1	230 to 231
O=S(CC1CO1)c1ncc(Cl)cn1 (stereo unspecified)	92
C#CCOc1nc(-n2nc3ccc(Cl)cn3c2=O)c(F)cc1C#N	207 to 209
CC(=O)Nc1ccc2c(c1)C(c1ccccc1F)=NCc1cnc(C)n1-2	326 to 331
COC(=O)c1ccc(CBr)cc1O	73 to 75
C[C@@H]1Oc2ccccc2C(=O)[C@H]1n1ccnc1 (relative stereo)	144 to 146
CCCCCCCCCCCCCCCCCNC(=O)OCCOCCOC(=O)N(Cc1ccccn1)C(C)=O	60 to 61
COc1nc(OC)nc(-n2cnc(S(C)(=O)=O)n2)n1	170
CNC(=S)N(C)Cc1cccnc1	86 to 87
CSc1ccc(N)c(C(=O)NN)c1	124 to 127
O=C1NC(=O)C(c2cn3c4c(cccc24)CCC3)C1c1ccc(O)cc1 (stereo unspecified)	105 to 107

SMILES	melting point [°C]
CC12CCCCC1CCC1C2CCC2(C)C(NCc3ccccc3)CCC12 (stereo unspecified)	85.5 to 87.5
CN(Cc1cccc(-c2ccc(CC3SC(=O)NC3=O)cc2)c1)C(=O)c1ccc2cc(O)ccc2c1 (stereo unspecified)	218
CCc1ccc(C(=O)c2ccc(F)cc2)c(O)c1	44 to 48
CC1CN(c2c(F)cc3c(=O)c(C(=O)O)cn(C(C)C)c3c2F)CCN1 (stereo unspecified)	217 to 218
COC(=O)CC=C(CC(C)C)C(=O)O	40 to 45
O=C(c1ccccc1CN1CC=CCC1)N1CCN2C(=O)OC(c3ccccc3)(c3ccccc3)C2C1 (stereo unspecified)	155 to 157
COc1cc(C2C3=C(CNC3=O)Nc3cc4c(cc32)OCO4)cc(OC)c1OC (stereo unspecified)	244
CCOC(=O)N1CCN(c2nc(N(C(C)=O)C3CC3)ccc2[N+](=O)[O-])CC1	90 to 93
c1ccc(Sc2ccc(Sc3ccccc3)cc2)cc1	78 to 79
C#Cc1ccc2sccc2c1	55
Cc1cc2cc(C#CCO)ccc2o1	102
CCCCCCCCc1ccc(CCC(CO)(CO)NC(C)=O)s1	58 to 60
CC(C)N1C(=O)C2CC(c3ccc(N)cc3)(C2)C1=O	191 to 201
CC#CC(C)(C)NC(=O)C(OCC)Oc1cc(Cl)cc(Cl)c1 (stereo unspecified)	76.5
CN(C)C(=O)N1CCC(Oc2c(F)c(F)c(F)c(F)c2F)(c2ccccc2)CC1	92 to 96
COC(=O)Cn1c(=O)c(=O)[nH]c2cc(C(F)(F)F)c(-n3cccc3)cc21	141 to 142
CC1(C)Cc2c(Cl)cccc2C=[N+]1[O-]	104 to 106
CSC(=N[N+](=O)[O-])NC(C)=O	109 to 110
O=C(NCc1ccc(F)cc1)Nc1ccc(CN2C(=O)[C@H]3CCC[C@H]3N(C(=O)CCl)c3ccccc32)cc1 (relative stereo)	202 to 203
